Experimental data as given in article PMC5555576, “Selective small-chemical inhibitors of protein arginine methyltransferase 5 with anti-lung cancer activity” (PLoS ONE, 2017).

Assays:
[1] = target: T1, PRMT5 F225M (Homo sapiens, UniProt O14744, F327M); assay: Radioactive methyltransferase assay, mutant PRMT5; format: biochemical; conditions: F225M mutant PRMT5, SmD3 substrate, Fig 4D
T1 construct: His6; made in house; host or cells: bacteria (E. coli BL21(ED3) for the wild type)
Method: Methylation reactions were performed as previously described with a few modifications. Reaction mixtures (40 μl) containing 1.2 μg of PRMT5, 98 ng of PRMT1 or 98 ng of PRMT3; 2 μg of SmD3 or histones; 1 μCi of S-[methyl-^3H]adenosylmethionine (H^3-AdoMet; PerkinElmer); and 5 μM AdoMet were incubated in 50 mM Tris-HCl (pH 7.5)–1 mM EGTA–1 mM EDTA at 30°C for 2 h. Reaction mixtures (20 μl) were boiled in 5 μl of 5x SDS sample buffer and separated on a 15% polyacrylamide gel. Gels were fixed for 30 min in 40% methanol–10% acetic acid, incubated in 20 ml of Amplify (Amersham Life Science) for 10 min, dried and exposed to X-ray film at -80°C. IC50 was calculated by linear regression analysis of percent inhibition. The other half (20 μl) of each reaction mixture was spread onto DE81 chromatography paper discs (Whatman). The paper discs were washed 4 times with 50 mM NaHCO3 and dried. The amounts of methylated products were quantified by liquid scintillation.
The inhibitory activity of the compounds may stem from this interaction. To test this possibility, we conducted site-directed mutagenesis to mutate Phe225 in human PRMT5 (corresponding to Phe379 in the C. elegans PRMT5) to Met. The mutated PRMT5 was expressed in bacteria and purified by Ni-nitrilotriacetic acid (Ni-NTA) affinity chromatography (Fig 4A). The activity of the mutant PRMT5 was examined by the radioactive methyltransferase assay. […] The IC50 values for the mutant PRMT5 increased from 4.3 to 183 folds higher than those for the wild type PRMT5 (Fig 4D). […] The results also can help explain the specificity of the compounds to PRMT5. However, the contribution of this interaction to inhibition varies among the compounds. For example, compound C2 interacts with three amino acid residues (Lys451, Glu450, and Phe379) (Fig 3A) with the mutation of Phe to Met resulting in a 50-times higher IC50 (Fig 4C and 4D).
Fig 4 The conserved phenylalanine residue in PRMT5 is critical for inhibition by the five compounds. A, DS-PAGE of recombinant wild type (WT) and F225M mutant (MT) PRMT5. The gel was stained with Coomassie Brilliant Blue R250. A band corresponding to an unknown bacterial protein is indicated (star). B, The F225M mutation increased the methytransferase activity of PRMT5. In vitro methylation reactions were performed with recombinant wild type (lanes 2–4) or mutant (lanes 5–7) PRMT5 (1.2, 2.4 or 4.8 μg) and SmD3 (2 μg) as the substrate. C, The F225M mutation in PRMT5 decreased inhibition of arginine methylation by the compounds. The reaction mixture contained SmD3 (2 μg); wild type or mutant PRMT5 (1.2 μg); and 1, 10 or 100 μM compounds as indicated. D, The F225M mutation in PRMT5 […] of the compounds, as determined by quantitation and analysis of methylation assay results. TEXT PRINTED IN THE PICTURE: (D) C2: IC50 (μM) PRMT5: 0.1; IC50 (μM) PRMT5 F225M: 5.0 | (D) C5: IC50 (μM) PRMT5: 0.8; IC50 (μM) PRMT5 F225M: 3.5 | (D) C6: IC50 (μM) PRMT5: 0.5; IC50 (μM) PRMT5 F225M: 7.0 | (D) C9: IC50 (μM) PRMT5: 6.0; IC50 (μM) PRMT5 F225M: 45.0 | (D) C11: IC50 (μM) PRMT5: 0.3; IC50 (μM) PRMT5 F225M: 55.0

[2] = Plasma concentrations after administration, LC-MS/MS; format: in vivo, BALB/c mice; conditions: mouse
Method: Male BALB/c mice (8–10 weeks old) were purchased from Charles River Laboratory and were randomized for compound administration. Chemical compounds were dissolved in 0.1 ml of 0.5% (w/v) carboxymethycellulose (Sigma-Aldrich) plus 0.5% Tween 80 (Fisher Scientific) and administrated by oral gavage at the dosage of 50 mg/kg or 100 mg/kg. Mice were sacrificed and blood samples were collected immediately before (n = 5) and at 2 (n = 5), 4 (n = 5), 6 (n = 5) or 8 (n = 8) h after compound administration. Plasma samples were sent to the Pharmaceutical Development Center at MD Anderson Cancer Center for LC-MS/MS assay to determine compound concentrations.
Supplementary file pone.0181601.s001.tif: S1 Fig The serum concentrations of compound C9. The chemical compound was dissolved in 5% DMSO-0.5% Tween 80. BALB/c mice (8–10 weeks old) were randomized and administrated the vehicle (0.1 ml) or compound C9 dissolved in the vehicle (0.1 ml) by intraperitoneal (I.P.) injection at the dosage of 25, 50 or 100 mg/kg. Mice were sacrificed and blood samples were collected immediately before (0 h, n = 5) and at 2 (n = 5), 4 (n = 5), 6 (n = 5) and 8 (n = 5) h after compound administration. Plasma samples were sent to the Pharmaceutical Development Center at MD Anderson Cancer Center for LC-MS/MS assay to determine compound concentrations. (TIF) Click here for additional data file.

[3] = tested on: CDK2 (Rb pT821) in A549 cells; assay: Western blot of Rb phosphorylation at T821; format: cell-based; conditions: 20 μM, 4 h
Description: (§1) The retinoblastoma protein (Rb) is phosphorylated by CKDs in cells.
(§2) (TIF) Click here for additional data file.

[4] = tested on: CDK4/6 (Rb pS811) in A549 cells; assay: Western blot of Rb phosphorylation at S811; format: cell-based; conditions: 20 μM, 4 h
Description: as §1, §2

[5] = Toxicity observed after intraperitoneal injection; format: in vivo, BALB/c mice; conditions: 100 mg/kg
Method: The obtained 3 compounds (C5, C9, and C11) have characteristics of Lipinski’s rule-of-five, which defines four physicochemical parameters found in a set of active drugs which made them into phase II clinical trials. We chose one compound (C9) to analyze its pharmacokinetic parameters in the mouse. BALB/c mice were randomized and administrated compound C9 (dissolved in 5% DMSO and 0.5% Tween 80) at dosages of 25, 50 and 100 mg/kg by intraperitoneal (I.P.) injection. Mice were sacrificed and blood samples were collected at different time points after administration of compounds. The compound concentrations in plasma samples were measured (S1 Fig). […] However, we observed the high toxicity of the compound in the mouse at the dosage of 100 mg/kg.

T1 sequence (O14744 whole entry F327M): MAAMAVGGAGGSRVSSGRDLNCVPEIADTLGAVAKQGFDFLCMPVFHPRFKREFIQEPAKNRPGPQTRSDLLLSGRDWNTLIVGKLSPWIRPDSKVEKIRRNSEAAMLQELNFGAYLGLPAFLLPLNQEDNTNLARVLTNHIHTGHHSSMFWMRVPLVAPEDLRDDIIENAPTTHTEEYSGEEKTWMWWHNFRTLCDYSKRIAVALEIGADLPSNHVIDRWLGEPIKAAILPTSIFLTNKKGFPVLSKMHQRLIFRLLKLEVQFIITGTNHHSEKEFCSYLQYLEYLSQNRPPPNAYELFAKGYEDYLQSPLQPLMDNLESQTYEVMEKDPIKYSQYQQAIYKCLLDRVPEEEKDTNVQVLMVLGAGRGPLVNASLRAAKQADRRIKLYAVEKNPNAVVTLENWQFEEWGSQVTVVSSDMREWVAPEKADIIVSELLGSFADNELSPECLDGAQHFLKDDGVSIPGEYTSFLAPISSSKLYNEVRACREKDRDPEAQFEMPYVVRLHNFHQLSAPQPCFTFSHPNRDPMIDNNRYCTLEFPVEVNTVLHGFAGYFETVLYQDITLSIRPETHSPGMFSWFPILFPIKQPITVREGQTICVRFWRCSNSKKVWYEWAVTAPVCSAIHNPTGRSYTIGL

Row | SMILES | IC50 [1] [µM] | oral drug availability compared to C9 ([2]; oral gavage) | Rb phosphorylation at the site T821 by CDK2 [3] | Rb phosphorylation at the site S811 by CDK4/6 [4] | plasma concentration reached ([2]; intraperitoneal injection, 100 mg/kg) [µM] | maximal plasma concentration ([2]; oral gavage, 100 mg/kg) [µM] | toxicity in the mouse [5]
1 | Cn1cc(C(c2ccc(O)c(O)c2O)c2cn(C)c3ccccc23)c2ccccc21 [Compound C11] | 55 | – | – | – | – | – | –
2 | Nc1cccc(Nc2ncnc3c2cnn3Cc2ccccc2)c1 [Compound C9a] | – | improved oral drug availability | failed to inhibit | failed to inhibit | – | – | –
3 | CCn1c(=O)[nH]c2cc(C(=O)Nc3ccc(OC)cc3)ccc2c1=O [Compound C5] | 3.5 | – | – | – | – | – | –
4 | COc1ccc(Nc2ncnc3c2cnn3Cc2ccc(C)cc2)cc1 [Compound C9] | 45 | – | failed to inhibit | failed to inhibit | 38 | 5.8 | high toxicity
